In PMC6199744, “Development of Chemical Proteomics for the Folateome and Analysis of the Kinetoplastid Folateome” (ACS Infectious Diseases, 2018):

What was measured:
[1] = test system: PROTEIN KINASE, PUTATIVE (Tb427.03.1570); assay: Multitargeted bead mixture competition; format: binding; conditions: free ligand 100 μM, T. brucei lysate
[2] = molecular target: PTR-1 (Trypanosoma brucei brucei, UniProt O76290); assay: Individual bead pull down with competing free ligand; conditions: competing free ligand 100 μM; bead = immobilized compound of the row; T. brucei lysate; read-out: % Inhibition of protein binding to bead, PTR-1, T. brucei
PTR-1, sequence (O76290 entry or part of it): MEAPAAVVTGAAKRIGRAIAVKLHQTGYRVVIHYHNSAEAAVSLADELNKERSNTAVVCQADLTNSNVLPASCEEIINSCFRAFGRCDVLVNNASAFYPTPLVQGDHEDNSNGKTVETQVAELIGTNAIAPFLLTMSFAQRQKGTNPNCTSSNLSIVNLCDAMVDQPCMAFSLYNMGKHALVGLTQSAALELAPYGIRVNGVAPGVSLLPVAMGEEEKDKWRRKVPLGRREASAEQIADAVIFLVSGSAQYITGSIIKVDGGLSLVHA
Description: (§1) Antifolate compounds were immobilized onto NHS-activated sepharose beads/reverse sepharose beads through amide coupling via either an amino or carboxyl group (see Figure 3). The reaction was monitored by observing the disappearance of test compound by LCMS, after which the unreacted coupling sites were capped with NHS-acetate or aminoethanol.
(§2) Folate metabolizing enzymes are not highly abundant proteins,[19],[20] potentially making their identification by MS difficult. Beads will not only pull down the low abundant high affinity binders but also attract highly abundant, low affinity binders or so-called nonspecific binders. Sometimes, the nonspecific high abundant proteins can mask true binders. The target identification approach used in this study overcomes this issue by performing competition studies. Various concentrations of the free unmodified inhibitor (test compound) were preincubated with the lysate, prior to addition of the beads derivatized with immobilized compounds. Following washing of the bound proteins from the beads and tryptic digest, the peptides were labeled using the TMTs and then pooled. Differences in peptide abundance were analyzed by fragmentation of the isotope-coded isobaric tags in the MS/MS spectra (Figure 5).[9],[11],[12],[21] While the competition experiments with test compound confirm specific binding, it is also possible that some proteins will have a stronger binding interaction with the derivatized beads than the competing test compound, due to subtle differences in the interactions between the immobilized compound and the test compound with the target protein.

[3] = molecular target: DHFR-TS (Trypanosoma brucei brucei, UniProt Q27783); assay: as above; conditions: competing free ligand 100 μM; bead = immobilized compound of the row; T. brucei lysate; read-out: % Inhibition of protein binding to bead, DHFR-TS, T. brucei
DHFR-TS, sequence (Q27783 whole entry): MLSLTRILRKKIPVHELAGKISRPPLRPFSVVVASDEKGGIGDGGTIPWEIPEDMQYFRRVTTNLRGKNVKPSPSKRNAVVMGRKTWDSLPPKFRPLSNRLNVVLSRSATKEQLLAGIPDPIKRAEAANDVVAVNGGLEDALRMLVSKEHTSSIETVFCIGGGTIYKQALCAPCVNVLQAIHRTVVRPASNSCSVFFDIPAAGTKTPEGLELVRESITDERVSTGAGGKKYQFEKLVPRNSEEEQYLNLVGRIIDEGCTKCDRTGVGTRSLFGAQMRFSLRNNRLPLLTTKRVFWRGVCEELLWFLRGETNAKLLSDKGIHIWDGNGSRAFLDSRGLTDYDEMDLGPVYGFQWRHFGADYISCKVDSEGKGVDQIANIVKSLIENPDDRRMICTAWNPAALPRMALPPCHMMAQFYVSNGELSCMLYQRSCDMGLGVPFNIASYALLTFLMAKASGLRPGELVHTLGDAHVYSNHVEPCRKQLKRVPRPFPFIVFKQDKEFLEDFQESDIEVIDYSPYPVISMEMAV
Description: as §1, §2

[4] = test system: LMJF.30.2970 (glyceraldehyde-3-phosphate dehydrogenase, GAPDH); assay: Individual MTX bead pull down; format: binding; conditions: L. major
[5] = test system: TB11.03.0290; assay: Multitargeted bead mixture competition; format: binding, T. brucei; conditions: multitargeted bead mixture; free ligand 100 μM; T. brucei lysate; TB11.03.0290
[6] = test system: ACETYLTRANSFERASE, PUTATIVE (Tb427.08.3310); assay: Multitargeted bead mixture competition; format: binding; conditions: free ligand 100 μM, T. brucei lysate
[7] = test system: LMJF.26.2560 (hypothetical conserved ATP binding protein); assay: Individual MTX bead pull down; conditions: L. major
[8] = test system: TB927.8.6460; assay: Multitargeted bead mixture competition; format: binding, T. brucei; conditions: multitargeted bead mixture; free ligand 100 μM; T. brucei lysate; TB927.8.6460
[9] = test system: TB927.8.6760; assay: Multitargeted bead mixture competition; format: binding; conditions: free ligand 100 μM, T. brucei lysate
[10] = molecular target: DIHYDROFOLATE REDUCTASE-T[…] (TB427.07.5480) (Trypanosoma brucei brucei, UniProt Q27783); assay: Multitargeted bead mixture competition; format: binding; conditions: T. brucei lysate
UniProt Q27783, sequence (Q27783 whole entry): as above

[11] = molecular target: GLYCERALDEHYDE 3-PHOSPHATE DEHYDROGENASE, GLYCOSOM (TB427.06.4300) (Trypanosoma brucei brucei, UniProt P22512); assay: Multitargeted bead mixture competition; format: binding, T. brucei
UniProt P22512, sequence (P22512 whole entry): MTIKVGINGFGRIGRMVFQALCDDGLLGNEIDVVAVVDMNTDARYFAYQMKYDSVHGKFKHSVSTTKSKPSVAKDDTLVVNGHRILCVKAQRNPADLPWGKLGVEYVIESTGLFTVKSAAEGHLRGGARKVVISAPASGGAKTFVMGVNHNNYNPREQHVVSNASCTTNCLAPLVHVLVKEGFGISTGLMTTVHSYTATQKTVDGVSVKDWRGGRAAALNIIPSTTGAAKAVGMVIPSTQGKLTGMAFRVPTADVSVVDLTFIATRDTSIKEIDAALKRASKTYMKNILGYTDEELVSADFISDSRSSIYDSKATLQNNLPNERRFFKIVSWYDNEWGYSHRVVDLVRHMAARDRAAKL

[12] = test system: HYPOTHETICAL PROTEIN, CONSERVED (TB427.05.3680); assay: Multitargeted bead mixture competition; format: binding; conditions: free ligand 100 μM, T. brucei lysate
[13] = test system: PEPTIDYL-PROLYL CIS-TRANS ISOMERASE (CYCLOPHILIN- (TB427TMP.211.1350)); assay: Multitargeted bead mixture competition; format: binding; conditions: free ligand 100 μM, T. brucei lysate
[14] = molecular target: PTERIDINE REDUCTASE (TB927.8.2210) (Trypanosoma brucei brucei, UniProt O76290); assay: Multitargeted bead mixture competition; format: binding, T. brucei; conditions: T. brucei lysate
PTERIDINE REDUCTASE (TB927.8.2210), sequence (O76290 entry or part of it): as the sequence (O76290 entry or part of it) above

[15] = test system: TB427.04.1870; assay: Multitargeted bead mixture competition; format: binding; conditions: free ligand 100 μM, T. brucei lysate
[16] = test system: TB927.7.1340; assay: Multitargeted bead mixture competition; format: binding; conditions: free ligand 100 μM, T. brucei lysate
[17] = test system: SUCCINYL-COA SYNTHETASE ALPHA SUBUNIT, PUTATIVE (Tb427.03.2230); assay: Multitargeted bead mixture competition; format: binding; conditions: free ligand 100 μM, T. brucei lysate
[18] = molecular target: methylene-THF-reductase (Homo sapiens, UniProt P42898); assay: Multitargeted bead mixture competition, HeLa cell extract; format: binding; conditions: bead mixture; HeLa cell extract
methylene-THF-reductase, sequence (P42898 whole entry): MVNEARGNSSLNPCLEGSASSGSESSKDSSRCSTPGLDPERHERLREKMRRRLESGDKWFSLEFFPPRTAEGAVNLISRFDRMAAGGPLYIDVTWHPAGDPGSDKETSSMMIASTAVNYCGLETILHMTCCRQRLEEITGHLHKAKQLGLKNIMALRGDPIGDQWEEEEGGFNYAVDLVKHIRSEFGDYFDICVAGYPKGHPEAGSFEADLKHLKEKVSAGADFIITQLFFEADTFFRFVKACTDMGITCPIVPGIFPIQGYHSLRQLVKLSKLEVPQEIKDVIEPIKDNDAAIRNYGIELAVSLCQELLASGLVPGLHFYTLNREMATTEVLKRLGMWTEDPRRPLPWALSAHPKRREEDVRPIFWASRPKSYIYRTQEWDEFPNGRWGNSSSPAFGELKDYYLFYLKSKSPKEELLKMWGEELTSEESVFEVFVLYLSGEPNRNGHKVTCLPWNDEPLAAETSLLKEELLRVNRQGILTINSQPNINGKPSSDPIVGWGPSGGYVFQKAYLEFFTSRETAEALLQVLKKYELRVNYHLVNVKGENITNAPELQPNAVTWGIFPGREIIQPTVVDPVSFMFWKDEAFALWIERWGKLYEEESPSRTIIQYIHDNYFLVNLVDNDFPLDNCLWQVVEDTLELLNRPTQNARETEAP

[19] = test system: BRANCHED-CHAIN AMINO ACID AMINOTRANSFERASE, PUTATI (TB427.02.4590); assay: Multitargeted bead mixture competition; format: binding; conditions: free ligand 100 μM, T. brucei lysate
[20] = test system: IRON/ASCORBATE OXIDOREDUCTASE FAMILY PROTEIN, PUTA (Tb427.02.6180); assay: Multitargeted bead mixture competition; format: binding, T. brucei; conditions: multitargeted bead mixture; free ligand 100 μM; T. brucei lysate; Tb427.02.6180
[21] = test system: CHOLINE KINASE (TB427TMP.18.0017); assay: Multitargeted bead mixture competition; format: binding, T. brucei; conditions: multitargeted bead mixture; free ligand 100 μM; T. brucei lysate; TB427TMP.18.0017 CHOLINE KINASE
[22] = test system: TB09.211.1690; assay: Multitargeted bead mixture competition; format: binding; conditions: free ligand 100 μM, T. brucei lysate
[23] = test system: HYPOTHETICAL PROTEIN, CONSERVED (TB427.03.2670); assay: Multitargeted bead mixture competition; format: binding; conditions: free ligand 100 μM, T. brucei lysate
[24] = test system: HYPOTHETICAL PROTEIN, CONSERVED (Tb427.10.6100); assay: Multitargeted bead mixture competition; format: binding; conditions: free ligand 100 μM, T. brucei lysate
[25] = test system: PHOSPHATIDYLINOSITOL-4-PHOSPHATE 5-KINASE, PUTATIV (TB427.10.3890); assay: Multitargeted bead mixture competition; format: binding; conditions: free ligand 100 μM, T. brucei lysate
[26] = test system: NGG1 INTERACTING FACTOR 3-LIKE (Tb427tmp.02.5000); format: binding; conditions: multitargeted bead mixture; free ligand 100 μM; T. brucei lysate; Tb427tmp.02.5000

CN(Cc1cnc2nc(N)nc(N)c2n1)c1ccc(C(=O)N[C@@H](CCC(=O)O)C(=O)O)cc1 [MTX, methotrexate]
percentage of competition from bead binding [1]: 9% | inhibition at 100 µM [2]: 90% | inhibition at 100 µM [3]: 95% | binding of LMJF.30.2970 (GAPDH) to MTX [4]: bind to MTX | percentage of competition from bead binding [5]: 57% | percentage of competition from bead binding [6]: 31% | binding of LMJF.26.2560 to MTX [7]: bind to MTX | percentage of competition from bead binding [8]: 54% | percentage of competition from bead binding [9]: 50% | competition for DHFR-TS (Figure 6) ([10]; bead mixture, compound 100 μM): compete for DHFR-TS | percentage of competition from bead binding ([10]; multitargeted bead mixture, free ligand 100 μM, TB427.07.5480 DHFR-TS): 85% | binding to GAPDH (Tb427.06.4300) ([11]; bead mixture, T. brucei lysates): bound | percentage of competition from bead binding ([11]; multitargeted bead mixture, free ligand 100 μM, T. brucei lysate, TB427.06.4300 GAPDH): 56% | percentage of competition from bead binding [12]: 69% | percentage of competition from bead binding [13]: 50% | competition for PTR1 (Figure 6) ([14]; bead mixture, compound 100 μM): competed for PTR1 | percentage of competition from bead binding ([14]; multitargeted bead mixture, free ligand 100 μM, TB927.8.2210 PTERIDINE REDUCTASE): 93% | percentage of competition from bead binding [15]: 58% | percentage of competition from bead binding [16]: 51% | percentage of competition from bead binding [17]: 18% | inhibition, methylene-THF-reductase [18]: 77% | percentage of competition from bead binding [19]: 34% | percentage of competition from bead binding [20]: 17% | percentage of competition from bead binding [21]: 57% | percentage of competition from bead binding [22]: 51% | percentage of competition from bead binding [23]: 50% | percentage of competition from bead binding [24]: 23% | percentage of competition from bead binding [25]: 56% | percentage of competition from bead binding [26]: 31%
